Laboratory results reported in PMC11190223, “Identification of sulfakinin receptor regulating feeding behavior and hemolymph trehalose homeostasis in the silkworm, Bombyx mori” (Scientific Reports, 2024).
Where no end group is shown, it is not given here. [ ]: non-standard residue; d: D form. sY = N[C@@H](Cc1ccc(OS(=O)(=O)O)cc1)C(=O)O

Legend:
[1] = Feeding behavior assay: larval body weight; type: in vivo, Bombyx mori; conditions: injected daily, final concentration 10 nM, 5th instar larvae, days 2 and 4 post-injection vs control (HBM)
Method: Synchronized larvae of the first day of 5th instar were chosen for feeding behavior assay. Silkworms were starved for 12 h to standardize the starting level. To knock down bngr-a9, 5 μg dsRNA/BNGR-A9 or dsRNA/EGFP was injected into the abdomen of the larvae at the indicated time using a 10 μl microsyringe. For silkworms, both treated and untreated with dsRNA, synthetic SK peptide (at a final concentration of 10 nM) was injected daily starting from the second day of the fifth instar. For each trial, twenty synchronized P50 larvae were used. After injection, the silkworm larvae were fed with enough mulberry leaves three times a day and maintained under standard conditions. Larval body weights and food consumption were measured every other day until pupation.

BNGR-A9 [2] = test: cAMP ELISA in BNGR-A9-expressing HEK293 cells; type: cell-based, Bombyx mori; conditions: 1 μM, 15 min, IBMX pretreatment (300 μM, 1 h)
Method: 1. Measurement of cAMP accumulation
Cells were seeded in 24-well plates and incubated overnight. Prior to treatment, cells
were pre-treated with the phosphodiesterase inhibitor IBMX (300 μM) for 1 hour.
Subsequently, cells were treated with different Bombyx neuropeptides for 15 minutes.
The reaction was terminated by removing the medium, followed by the addition of
ice-cold PBS and a single wash. Cell lysis was performed, and cAMP formation was
assessed using a competitive binding technique based on an enzyme-linked
immunosorbent assay (ELISA) (Parameter cAMP assay, R&D, Minneapolis, USA)
following the manufacturer's instructions. The results were expressed as the fold
change in cAMP concentration compared to the control concentration in the
2. Determination of Glucose of hemolymph
Silkworm larvae were anesthetized by cooling on ice, after which hemolymph was
collected using a micropipette from an incision made at the abdominal leg.
Approximately 5 mg of phenylthiourea (to achieve a final concentration of 2.5% w/v)
was added to the hemolymph in a 1.5 ml Eppendorf tube to inhibit clotting.
Hemolymph samples from 10 insects were then centrifuged at 12,000 rpm for 10
minutes at 4 °C to sediment any particulates. The glucose concentration in the
hemolymph was determined using a glucose oxidase-peroxidase kit (Shanghai […]
by stimulation with 1μM BmnsSK or BmsSK for 15 min, and the cAMP level was determined […]

[3] = Hemolymph trehalose determination; type: in vivo, Bombyx mori
Method: Silkworm larvae were anesthetized by cooling on ice, after which hemolymph was collected using a micropipette from an incision made at the abdominal leg. Approximately 5 mg of phenylthiourea (to achieve a final concentration of 2.5% w/v) was added to the hemolymph in a 1.5 ml Eppendorf tube to inhibit clotting. Hemolymph samples from 10 insects were then centrifuged at 12,000 rpm for 10 min at 4 °C to sediment any particulates. For trehalose measurement, the hemolymph underwent pretreatment with trehalase (Megazyme, Chicago, US), following the manufacturer’s protocol. Subsequently, the sugar concentration in the hemolymph was assessed using a glucose oxidase–peroxidase kit (Shanghai Rongsheng Biotech, China).

[4] = system: ERK phosphorylation in silkworm brains; test: ERK phosphorylation (western blot), silkworm larval brains ex vivo; parameters: species or system Bombyx mori
Method: HEK293 cells with Flag-BNGR-A9 were exposed to 100 nM BmsSK for different durations and then lysed using RIPA buffer (Beyotime, China). For ex vivo assays, brains from 5th instar silkworm larvae were treated with BmsSK (100 nM) for 1, 2, or 8 h, either with a pre-treatment of Gαq inhibitor FR900359 for 30 min or without it. After treatment, samples were lysed, homogenized, and their protein concentrations were determined with a BCA protein kit (Takara, Japan). For western blot analysis, equal amounts of protein lysate were used. Protein expression was analyzed using specific primary antibodies: rabbit monoclonal antibodies for total and phosphorylated ERK from Cell Signaling Technology (MA, USA).

BNGR-A9 [5] = test: ERK1/2 phosphorylation (western blot), BNGR-A9-expressing HEK293 cells; type: cell-based, Bombyx mori
BNGR-A9 [6] = test: CRE-driven luciferase reporter assay, BNGR-A9; type: cell-based, Bombyx mori; conditions: 4 h, at least three independent experiments; for EC50: dose-response
Source text: The entire coding region of BNGR-A9 (NM_001134272.1) was obtained by PCR and subsequently cloned into pEGFP-N1 and pCMV-Flag vectors using the primers listed in Table S1. The Flag-BNGR-A9 construct was generated for functional assays, including CRE-luciferase, calcium mobilization, and ERK phosphorylation assays, while BNGR-A9-EGFP was created for receptor visualization purposes. Additionally, for expression in the BmN cell system, the BNGR-A9 gene was inserted into the pIZT/V5-His vector. All constructs were validated by DNA sequencing.
HEK293 cells were cultured with Dulbecco’s Modified Eagle’s Medium (Gibco, NY, USA) supplied with 10% Fetal bovine serum (Gibco, NY, USA) in a 37 °C humidified incubator containing 5% CO2. BmN cells were maintained in TC 100 insect medium (AppliChem, Darmstadt, Germany) supplied with 10% Fetal bovine serum in a 28 °C incubator. Both HEK293 and BmN cells were transfected with X-tremeGENE (Roche, Mannheim, Germany) according to the manufacturer’s instruction.
HEK293 and BmN cells were transfected with the different Bombyx receptors (Flag-BNGR-A9, -A24, -A32, or A33 for HEK293 cells, and pIZT-BNGR-A9, -A24, -A32, or A33 for BmN cells) along with the corresponding CRE-reporter plasmid. When cell confluence reached 90–95%, they were treated with various concentrations of Bombyx mori neuropeptides, with or without forskolin. Following a 4-h incubation period, cells were lysed, and luciferase activities were determined using a firefly luciferase kit (Beyotime, Shanghai, China).
Data analysis was conducted using GraphPad Prism (San Diego, CA), with results presented as mean ± SEM. Statistical significance was assessed through Student’s t-test or two-way ANOVA with multiple comparisons, with p values below 0.05 denoted as significant (*p < 0.05, **p < 0.01, ***p < 0.001). Dose–response curves were generated via non-linear curve fitting. Adobe Photoshop was used to process images, ensuring uniform brightness and contrast settings across all conditions. All images and data provided represent findings from a minimum of three independent experiments.

In the case of “BmsSK: Bombyx mori sulfated-sulfakinin, synthetic; sulfated version of GDDTFDD^8YGHLRF-NH2 (GDDTFDD[sY]GHLRF-NH2; N-terminus assumed; SMILES CC(C)C[C@H](NC(=O)[C@H](Cc1c[nH]cn1)NC(=O)CNC(=O)[C@H](Cc1ccc(OS(=O)(=O)O)cc1)NC(=O)[C@H](CC(=O)O)NC(=O)[C@H](CC(=O)O)NC(=O)[C@H](Cc1ccccc1)NC(=O)[C@@H](NC(=O)[C@H](CC(=O)O)NC(=O)[C@H](CC(=O)O)NC(=O)CN)[C@@H](C)O)C(=O)N[C@@H](CCCNC(=N)N)C(=O)N[C@@H](Cc1ccccc1)C(N)=O)”, the Body weight [1] is reported as “weight loss”, the Body weight ([1]; listed as synthetic sulfated- SK) is reported as “notably declined” and the “Intracellular cAMP level” value (BNGR-A9 [2]) is reported as “remained unchanged”. For the same substance, the Hemolymph trehalose level ([3]; BmsSK final 10 nM, 24 h after EGFP dsRNA injection, hemolymph collected 24 h later) was “significant increase in trehalose levels”, the Hemolymph trehalose level ([3]; following BmsSK injection (restated in discussion)) was “significant rise in circulating hemolymph trehalose” and the “Time of peak ERK1/2 phosphorylation” value ([4]; 5th instar silkworm brains, 100 nM BmsSK for 1, 2 or 8 h) was 2 h. The ERK1/2 phosphorylation ([4]; silkworm brains, 100 nM BmsSK) was “quick and dose-dependent increase in ERK1/2 phosphorylation”, the ERK1/2 phosphorylation (BNGR-A9 [5]; HEK293 cells expressing BNGR-A9, serum-starved 1 h) was “quick and dose-dependent increase in ERK1/2 phosphorylation” and the “Time of peak ERK1/2 phosphorylation” value (BNGR-A9 [5]; HEK293 cells, 10 nM BmsSK time course (Fig. 7A)) was 5 min. The EC50 (BNGR-A9 [6]; BmN cells stably expressing BNGR-A9) was 60 nM, the “Activation of BNGR-A9 (CRE-driven luciferase activity)” value (BNGR-A9 [6]; HEK293 and BmN cells, 1 μM peptide, with or without forskolin (5 μM)) was “could activate BNGR-A9” and the EC50 (BNGR-A9 [6]; HEK293 cells stably expressing BNGR-A9) was 73.3 nM.
